Data on 19 compounds can be found in patent publication US11325899B2, “Benzofurane and benzothiophene derivatives as PGE2 receptor modulators” (IDORSIA PHARMACEUTICALS LTD, priority 2017, dated 2022).

What all share (format): cell-based
One test concerns the target T1, PTGER2 (EP2) (Homo sapiens, UniProt P43116).
T1 construct: host or cells: HEK 293 (PathHunter PTGER2 b-arrestin cell line)
Briefly: hEP2 b-arrestin assay (PathHunter HEK 293 PTGER2 b-arrestin cells). The following applies: antagonistic activity, beta-arrestin assay; read-out: hEP2 b-arr IC50. The method, boiled down: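 Antagonism measured as inhibition of PGE2-driven β-arrestin 2 recruitment (enzyme fragment complementation, luminescence) in engineered HEK293 EP2 cells. Agonist: 5 μM PGE2, ~EC80, 120 min at 37 °C after 15 min compound preincubation; test range 10 μM-2 nM or 1 μM-0.2 nM, duplicates, IC50 fitted.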

Another test addresses T2, PTGER4 (EP4) (Homo sapiens, UniProt P35408).
T2 construct: host or cells: HEK 293 (PathHunter PTGER4 b-arrestin cell line)
Kind of test: hEP4 b-arrestin assay (PathHunter HEK 293 PTGER4 b-arrestin cells). The following applies: antagonistic activity, beta-arrestin assay; read-out: hEP4 b-arr IC50. The method, boiled down:
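β-Arrestin recruitment to EP4 was read as enzyme-fragment-complementation chemiluminescence in stably transfected HEK 293 cells. After 15 min compound preincubation at 37 °C (ranges 10 μM–2 nM or 1 μM–0.2 nM), cells were stimulated 120 min with PGE2 at 20 nM, its EC80. IC50 values were fitted from duplicates, with repeat measurements averaged.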

For a further test, the target named is T3, EP2 receptor (Homo sapiens, UniProt P43116).
T3 construct: SF295 glioblastoma cells express high endogenous EP2 and no EP4; host or cells: SF295 glioblastoma cells
Kind of test: hEP2 cAMP assay (SF295 glioblastoma cells, HTRF cAMP, PGE2 stimulation). The following applies: antagonistic activity. The method, boiled down: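 HTRF cAMP readout gave % cAMP relative to DMSO, fitted to IC50 with duplicate points. Compounds were preincubated 45 min at room temperature with EP2-expressing, EP4-negative SF295 cells in IBMX (2 mM)-containing buffer before a 30 min challenge with PGE2 at 75 nM final, its EC80.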
For orientation: Changes in cAMP serve as a functional read-out for many G protein-coupled receptors.

T2 sequence (P35408 whole entry): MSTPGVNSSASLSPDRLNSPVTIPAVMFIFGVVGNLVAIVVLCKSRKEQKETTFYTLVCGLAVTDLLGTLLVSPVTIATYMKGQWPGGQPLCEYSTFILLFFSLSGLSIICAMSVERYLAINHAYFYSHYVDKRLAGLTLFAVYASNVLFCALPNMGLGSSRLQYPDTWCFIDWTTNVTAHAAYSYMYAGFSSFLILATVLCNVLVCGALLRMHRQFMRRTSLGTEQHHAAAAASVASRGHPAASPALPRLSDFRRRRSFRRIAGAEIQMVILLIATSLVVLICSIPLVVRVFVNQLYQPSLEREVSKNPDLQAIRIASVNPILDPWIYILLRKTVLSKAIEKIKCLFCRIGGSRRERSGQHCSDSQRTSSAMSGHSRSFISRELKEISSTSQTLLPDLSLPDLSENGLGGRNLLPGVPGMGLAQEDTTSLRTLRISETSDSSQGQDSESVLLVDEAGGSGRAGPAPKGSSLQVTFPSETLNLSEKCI
T1 sequence (P43116 whole entry): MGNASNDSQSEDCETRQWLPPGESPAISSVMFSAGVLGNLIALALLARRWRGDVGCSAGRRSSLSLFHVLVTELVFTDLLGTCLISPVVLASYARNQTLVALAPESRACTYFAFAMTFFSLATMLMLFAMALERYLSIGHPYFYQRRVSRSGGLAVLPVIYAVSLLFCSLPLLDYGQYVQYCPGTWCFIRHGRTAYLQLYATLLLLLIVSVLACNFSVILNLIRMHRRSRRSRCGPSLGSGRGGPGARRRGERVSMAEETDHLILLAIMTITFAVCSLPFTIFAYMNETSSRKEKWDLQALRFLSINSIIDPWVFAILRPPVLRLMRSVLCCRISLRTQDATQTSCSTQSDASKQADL
T3 sequence (P43116 whole entry): as above

The IC50 is the concentration at which inhibition is half-maximal. Regarding `CCOc1cc(-c2cc(NCCc3c(C)oc4c(C)cc(Cl)cc34)ncn2)ccc1C(=O)O` [Example 64, 4-{6-[2-(5-Chloro-2,7-dimethyl-benzofuran-3-yl)-ethylamino]-pyrimidin-4-yl}-2-ethoxy-benzoic acid], the figures for the IC50 at PTGER2 (EP2), on PTGER4 (EP4) and at EP2 receptor were 11 nM, 522 nM and 7 nM, respectively.

In the case of `CCOc1cc(-c2cc(NCCc3c(C)sc4c(Cl)cc(F)cc34)ncn2)ccc1C(=O)O` [Example 65, 4-{6-[2-(7-Chloro-5-fluoro-2-methyl-benzo[b]thiophen-3-yl)-ethylamino]-pyrimidin-4-yl}-2-ethoxy-benzoic acid], the IC50 amounted to 16 nM on PTGER2 (EP2), 428 nM at PTGER4 (EP4) and 15 nM against EP2 receptor.

Consider `CCOc1cc(-c2cc(NCCc3c(C)sc4c(C)ccc(Cl)c34)ncn2)ccc1C(=O)O` [Example 66, 4-{6-[2-(4-Chloro-2,7-dimethyl-benzo[b]thiophen-3-yl)-ethylamino]-pyrimidin-4-yl}-2-ethoxy-benzoic acid], for which the IC50 at PTGER2 (EP2) was 27 nM; on PTGER4 (EP4), 407 nM; at EP2 receptor, 101 nM.

As to `CCOc1cc(-c2cc(NCCc3c(C)oc4c(OC)ccc(F)c34)ncn2)ccc1C(=O)O` [Example 67, 2-Ethoxy-4-{6-[2-(4-fluoro-7-methoxy-2-methyl-benzofuran-3-yl)-ethylamino]-pyrimidin-4-yl}-benzoic acid], the IC50 at PTGER2 (EP2) is 73 nM; at PTGER4 (EP4), 369 nM; against EP2 receptor, 142 nM.

Take `CCOc1cc(-c2cc(NCCc3c(C)oc4c(Cl)cccc34)ncn2)ccc1C(=O)O` [Example 68, 4-{6-[2-(7-Chloro-2-methyl-benzofuran-3-yl)-ethylamino]-pyrimidin-4-yl}-2-ethoxy-benzoic acid]: the IC50 at PTGER2 (EP2) is 14 nM; at PTGER4 (EP4), 659 nM; against EP2 receptor, 39 nM.

Take `CCOc1cc(-c2cc(NCCc3c(C)oc4c(C)cc(F)cc34)ncn2)ccc1C(=O)O` [Example 69, 2-Ethoxy-4-{6-[2-(5-fluoro-2,7-dimethyl-benzofuran-3-yl)-ethylamino]-pyrimidin-4-yl}-benzoic acid]: the results for the IC50 at PTGER2 (EP2), on PTGER4 (EP4) and against EP2 receptor were 24 nM, 668 nM and 74 nM, respectively.

Take `CCOc1cc(-c2cc(NCCc3c(C)oc4c(OC)cc(Cl)cc34)ncn2)ccc1C(=O)O` [Example 70, 4-{6-[2-(5-Chloro-7-methoxy-2-methyl-benzofuran-3-yl)-ethylamino]-pyrimidin-4-yl}-2-ethoxy-benzoic acid]: the half-maximal inhibitory concentration (IC50) was 37 nM at PTGER2 (EP2), 394 nM at PTGER4 (EP4) and 80 nM at EP2 receptor.

For the compound `CCOc1cc(-c2cc(NCCc3c(C)oc4c(Cl)cc(Cl)cc34)ncn2)ccc1C(=O)O` [Example 71, 4-{6-[2-(5,7-Dichloro-2-methyl-benzofuran-3-yl)-ethylamino]-pyrimidin-4-yl}-2-ethoxy-benzoic acid], the IC50 at PTGER2 (EP2) was 7 nM; at PTGER4 (EP4), 958 nM; against EP2 receptor, 10 nM.

On to `CCOc1cc(-c2cc(NCCc3c(C)sc4ccccc34)ncn2)ccc1C(=O)O` [Example 72, 2-Ethoxy-4-{6-[2-(2-methyl-benzo[b]thiophen-3-yl)-ethylamino]-pyrimidin-4-yl}-benzoic acid], for which the IC50 at PTGER2 (EP2) is 3 nM; at PTGER4 (EP4), 2250 nM; on EP2 receptor, 8 nM.

Take `CCOc1cc(-c2cc(NCCc3c(Cl)sc4ccccc34)ncn2)ccc1C(=O)O` [Example 75, 4-{6-[2-(2-chloro-benzo[b]thiophen-3-yl)-ethylamino]-pyrimidin-4-yl}-2-ethoxy-benzoic acid]: the figures for the IC50 at PTGER2 (EP2), on PTGER4 (EP4) and on EP2 receptor were 8 nM, 4300 nM and 9 nM, respectively.

Consider `Cc1sc2c(C)cccc2c1CCNc1cc(-c2ccc3c(C(=O)O)coc3c2)ncn1` [Example 76, 6-{6-[2-(2,7-Dimethyl-benzo[b]thiophen-3-yl)-ethylamino]-pyrimidin-4-yl}-benzofuran-3-carboxylic acid], for which the IC50 at PTGER2 (EP2) turned out to be 10 nM; on PTGER4 (EP4), 1140 nM; on EP2 receptor, 39 nM.

On to `Cc1sc2c(C)cccc2c1CCNc1cc(-c2ccc3cc(C(=O)O)oc3c2)ncn1` [Example 77, 6-{6-[2-(2,7-Dimethyl-benzo[b]thiophen-3-yl)-ethylamino]-pyrimidin-4-yl}-benzofuran-2-carboxylic acid], for which the IC50 on PTGER2 (EP2) worked out at 6 nM; at PTGER4 (EP4) it was 1310 nM; at EP2 receptor, 8 nM.

With `Cc1sc2c(C)cc(F)cc2c1CCNc1cc(-c2ccc(-c3nc(=O)[nH]o3)cc2)ncn1` [Example 79, 5-(4-{6-[2-(5-Fluoro-2,7-dimethyl-benzo[b]thiophen-3-yl)-ethylamino]-pyrimidin-4-yl}-phenyl)-[1,2,4]oxadiazol-3(2H)-one [tautomeric form: 5-(4-(6-((2-(5-fluoro-2,7-dimethylbenzo[b]thiophen-3-yl)ethyl)amino)pyrimidin-4-yl)phenyl)-[1,2,4]oxadiazol-3-ol]], the results for the IC50 at PTGER2 (EP2), on PTGER4 (EP4) and against EP2 receptor were 26 nM, 263 nM and 106 nM, respectively.

For `Cc1sc2c(C)cc(F)cc2c1CCNc1cc(-c2cc3c(C(=O)O)cccc3[nH]2)ncn1` [Example 82, 2-{6-[2-(5-Fluoro-2,7-dimethyl-benzo[b]thiophen-3-yl)-ethylamino]-pyrimidin-4-yl}-1H-indole-4-carboxylic acid], the IC50 is 13 nM at PTGER2 (EP2), 155 nM on PTGER4 (EP4) and 21 nM against EP2 receptor.

For the compound `COc1cc(Cl)cc2c(CCNc3cc(-c4ccc(C(=O)O)c(OC5CC5)c4)ncn3)c(C)oc12` [Example 83, 4-{6-[2-(5-Chloro-7-methoxy-2-methyl-benzofuran-3-yl)-ethylamino]-pyrimidin-4-yl}-2-cyclopropoxy-benzoic acid], the values for the IC50 on PTGER2 (EP2), at PTGER4 (EP4) and on EP2 receptor were 22 nM, 101 nM and 44 nM, respectively.

Regarding `COc1ccc(F)c2c(CCNc3cc(-c4ccc(C(=O)O)c(OC5CC5)c4)ncn3)c(C)sc12` [Example 84, 2-Cyclopropoxy-4-{6-[2-(4-fluoro-7-methoxy-2-methyl-benzo[b]thiophen-3-yl)-ethylamino]-pyrimidin-4-yl}-benzoic acid], the IC50 on PTGER2 (EP2) worked out at 21 nM; on PTGER4 (EP4) it was 80 nM; at EP2 receptor, 21 nM.

As to `COc1cc(F)c(F)c2c(CCNc3cc(-c4ccc(C(=O)O)c(OC5CC5)c4)ncn3)c(C)oc12` [Example 85, 2-Cyclopropoxy-4-{6-[2-(4,5-difluoro-7-methoxy-2-methyl-benzofuran-3-yl)-ethylamino]-pyrimidin-4-yl}-benzoic acid], the IC50 at PTGER2 (EP2) was found to be 68 nM; at PTGER4 (EP4) it was 374 nM; at EP2 receptor it was 49 nM.

For `Cc1sc2c(C)cc(F)cc2c1CCNc1cc(-c2ccc(C(=O)O)c(OCCO)c2)ncn1` [Example 86, 4-{6-[2-(5-fluoro-2,7-dimethyl-benzo[b]thiophen-3-yl)-ethylamino]-pyrimidin-4-yl}-2-(2-hydroxy-ethoxy)-benzoic acid], the half-maximal inhibitory concentration (IC50) at PTGER2 (EP2) was 19 nM; at PTGER4 (EP4), 4520 nM; against EP2 receptor it was 11 nM.

Turning to `CCCSc1cc(-c2cc(NCCc3c(C)sc4c(C)cccc34)ncn2)ccc1C(=O)O` [Example 87, 4-{6-[2-(2,7-Dimethyl-benzo[b]thiophen-3-yl)-ethylamino]-pyrimidin-4-yl}-2-propylsulfanyl-benzoic acid], the figures for the IC50 on PTGER2 (EP2), at PTGER4 (EP4) and against EP2 receptor were 5 nM, 318 nM and 15 nM, respectively.
